In one data set the test system is Botrytis cinerea 57. In words: Minimum inhibitory concentration. It counts as cell-based.
The next data set relates to Candida albicans. As to the kind of experiment: Minimum inhibitory concentration. It counts as cell-based.
For a further data set, the system named is Botrytis cinerea 47. In words: Minimum inhibitory concentration. Type of data set: cell-based.
Data set [1] in a line: Solubility (physicochemical properties). An excerpt: Physicochemical Properties of the New Antibiotic Deoxymulundocandin
The next data set deals with Cladosporium species. In words: Minimum inhibitory concentration. Type of data set: cell-based.
A further data set concerns Penicillium italicum. In words: Minimum inhibitory concentration. It counts as cell-based.
A further data set has as its system Cercospora beticola 71. In words: Minimum inhibitory concentration. It counts as cell-based.
Another data set has as its system Botrytis cinerea 211. As to the kind of experiment: Minimum inhibitory concentration. It counts as cell-based.
Data set [2] deals with Trichophyton mentagrophytes. In words: Minimum inhibitory concentration. Type of data set: cell-based.
A further data set deals with Botrytis cinerea 212. As to the kind of experiment: Minimum inhibitory concentration. Type of data set: cell-based.
A further data set deals with Saccharomycis cerevisiae. As to the kind of experiment: Minimum inhibitory concentration. Type of data set: cell-based.
The subject of the next data set is Microsporum gypseum. In words: Minimum inhibitory concentration. It counts as cell-based.
In the next data set the test system is Microsporum canis. In words: Minimum inhibitory concentration. It counts as cell-based.
The next data set concerns Aspergillus niger. As to the kind of experiment: Minimum inhibitory concentration. It counts as cell-based.

Numbered stars: 1 amine (or outer) side, 2 acyl side, 3 side chain; on linkers, the order of the positions; unused ones are H or OH. Bridge positions count the residues as written; N and C are the ends. Square brackets hold non-standard residues; d marks the D form. Peptide text beside a SMILES is read from it. * marks the point of attachment. Orn(4R-OH,5R-OH) = O=C([C@H](C[C@@H](O)[C@@H](O)N[*:3])N[*:1])[*:2]; Pro(3S-OH,4S-Me) = C[C@H]1CN[C@H](C(=O)O)[C@H]1O; hTyr(3R-OH) = N[C@H](C(=O)O)[C@H](O)Cc1ccc(O)cc1; Hyp = O=C(O)[C@@H]1C[C@@H](O)CN1; X1 = CCC(C)CCCCCCCCCCC(=O)* Some results are limits rather than exact numbers.

Consider `CCC(C)CCCCCCCCCCC(=O)N[C@H]1C[C@@H](O)[C@@H](O)NC(=O)[C@@H]2[C@@H](O)[C@@H](C)CN2C(=O)[C@H](CO)NC(=O)[C@H]([C@H](O)Cc2ccc(O)cc2)NC(=O)[C@@H]2C[C@@H](O)CN2C(=O)[C@H]([C@@H](C)O)NC1=O` (stereo partly drawn) [Deoxymulundocandin] (X1-[Orn(4R-OH,5R-OH)]T[Hyp][hTyr(3R-OH)]S[Pro(3S-OH,4S-Me)]; lactam 1-C), for which the “Minimum Inhibitory Concentration” value worked out at 50 micrograms per milliliter in the data set with Botrytis cinerea 57; 1.5 micrograms per milliliter in the data set on Candida albicans; 6.25 micrograms per milliliter in the data set with Botrytis cinerea 47; 0.75 micrograms per milliliter in the data set with Cladosporium species; 25 micrograms per milliliter with Penicillium italicum; 6.25 micrograms per milliliter in the data set on Cercospora beticola 71. Moreover, the “Minimum Inhibitory Concentration” value with Botrytis cinerea 211 was 25 micrograms per milliliter; in [2], under 0.18 micrograms per milliliter; with Botrytis cinerea 212 it was 25 micrograms per milliliter; with Saccharomycis cerevisiae, 3.1 micrograms per milliliter; with Microsporum gypseum it was 0.18 micrograms per milliliter; with Microsporum canis, under 0.18 micrograms per milliliter. Moreover, the “Minimum Inhibitory Concentration” value with Aspergillus niger was 3.1 micrograms per milliliter. The Solubility result in data set [1] (in methanol, dimethyl formamide, dimethyl sulfoxide) was “Soluble”; in data set [1] (in water, acetone, acetonitrile, ethyl acetate, carbon tetrachloride, chloroform, benzene, petroleum ether) it was “sparingly soluble”.

(Values after patent US5387670A, “Antibiotic, deoxymulundocandin, a process for its production and its use as medicament” (Hoechst Aktiengesellschaft, priority 1990, dated 1995).)
